Reference: patent US20220380574A1, “DUAL-FUNCTION MELT ADDITIVES” (3M INNOVATIVE PROPERTIES COMPANY, priority 2019, published 2022)

System: S. aureus ATCC 6538
Experiment: Modified AATCC Method 100, antibacterial activity of nonwoven BMF webs (viable cell count after 24 hrs)
Assay type: cell-based
Conditions: statement in words on the additive in electret webs
From the text: Besides the charge-enhancing properties, the charge-enhancing additives also provide anti-microbial properties. Antimicrobials are agents that kill microorganisms or stops their growth. Antimicrobials work at a cellular level to continually disrupt and prevent the growth of microorganisms. By creating an inhospitable environment for microorganisms like bacteria, mold and mildew, antimicrobials protect everyday products like countertops, toys, surface coatings, textiles and hospital equipment. The antimicrobial activity of the current charge-enhancing additives in electret webs can be measured in a variety of different ways. One particularly suitable measurement technique is the standard test method of “Modified AATCC Method 100—Assessment of Antibacterial Finishes on Textile Materials” was used for the nonwoven webs performance test. This method is used to evaluate the antibacterial activity of textile products treated with antibacterial finish, which is suitable for nonwoven hydrophobic fabric webs. Details of the test method are provided in the Examples section, below. The standard test method of “Modified AATCC Method 100—Assessment of Antibacterial Finishes on Textile Materials” was used for the nonwoven webs performance test. […] Viable cell count of S. Aureus ATCC 6538 on BMF web after 24 hrs were measured.

Compound: c1ccc(-c2nc3ccccc3[nH]2)cc1 [CA-4, 2-Phenylbenzimidazole]
- combination of charge-enhancing and anti-microbial properties: do not have this combination of properties
